Measured values as given in publication PMC6274355, “Synthesis and Anti-HIV-1 Activity Evaluation for Novel 3a,6a-Dihydro-1H-pyrrolo[3,4-c]pyrazole-4,6-dione Derivatives” (Molecules, 2016).
Like-named read-outs stand apart in the source and are kept apart here.

Legend:
HIV-1IIIB = assay: Syncytia inhibition assay (HIV-1IIIB infected C8166 cells); type: cell-based; conditions: for TI (in vitro therapeutic index, CC50 value/EC50 value): CC50 in C8166 cells / EC50 syncytia inhibition; for EC50: HIV-1IIIB infected C8166 cells, 72 h, means of two separate experiments, read-out: EC50 (50% effective concentration, reduces syncytia formation by 50%)
Experimental: Target compounds 6–16 were evaluated for their inhibitory activity against HIV-1 replication in acutely infected C8166 cells in vitro according to the previously described method, and AZT was used as a positive control. The assay results of the target compounds are presented in Table 1 and Table 2, expressed as CC50, EC50 and therapeutic index (TI).
The syncytia inhibition assay was applied by counting syncytia which were formed by HIV-1IIIB infected C8166 cells. Briefly, HIV-1IIIB supernatant and C8166 cells were seeded in a 96-well plate with different concentration of compounds. The plate was incubated in a 37 °C, 5% CO2 incubator for 72 h. Syncytia were counting under an inverted microscope and 50% effective concentration (EC50) was calculated. Therapeutic index (TI) was calculated by the ratio of CC50/EC50.

Cytotoxicity assay (MTT) = type: cell-based; conditions: human; C8166 cells, MTT, 72 h; means of two separate experiments; read-out: CC50 (50% cytotoxic concentration)
Experimental: The cytotoxicty assay was performed by 3-(4,5-dimethylthiazol-2-yl)-2,5-diphenyl tetrazoliumbromide (MTT) method. Briefly, 100 μL 4 × 10^4 C8166 cells were seeded each well with 100 μL of different concentrations of compounds in a 96-well plate. The plate was incubated 72 h at 37 °C, 5% CO2 incubator. MTT (20 μL, 5 mg/mL) was added to each well and the plate was incubated at 37 °C for 4 h. Supernatant (100 μL) was discarded and 20% SDS-50% DMF (100 μL) was added. The plates were read at 570/630 nm by a Bio-Tek Elx 800 reader (Bio-Tek Instruments, Inc., Winooski, VT, USA). The 50% cytotoxic concentration (CC50) was calculated.

[1] = Human immunodeficiency virus 1, C8166, 72 h

Row | SMILES | EC50 (HIV-1IIIB; [1]) [µM] | EC50 (HIV-1IIIB) [µM] | TI (in vitro therapeutic index, CC50 value/EC50 value) (HIV-1IIIB) | CC50 at 72 h (Cytotoxicity assay (MTT)) [µM]
1 | COc1ccc(C2=NN(c3ccc(F)cc3)C3C(=O)N(CCc4ccc(F)cc4)C(=O)C23)c(O)c1 (stereo not shown) [10a, 1-(4-Fluorophenyl)-5-[2-(4-fluorophenyl)ethyl]-3-(2-hydroxy-4-methoxyphenyl)-3a,6a-dihydro-1H-pyrrolo[3,4-c]pyrazole-4,6-dione] | 8.52 | – | 2.51 | 21.4
2 | CCOc1cccc(C2=NN(c3ccc(F)cc3)C3C(=O)N(CCc4ccc(F)cc4)C(=O)C23)c1O (stereo not shown) [10c, 1-(4-Fluorophenyl)-5-[2-(4-fluorophenyl)ethyl]-3-(3-ethoxy-2-hydroxyphenyl)-3a,6a-dihydro-1H-pyrrolo[3,4-c]pyrazole-4,6-dione] | 116 | – | >3.51 | > 407
3 | COc1cccc(C2=NN(c3ccc(F)cc3)C3C(=O)N(CCc4ccc(F)cc4)C(=O)C23)c1OC (stereo not shown) [12a, 3-(2,3-Dimethoxyphenyl)-1-(4-fluorophenyl)-5-[2-(4-fluorophenyl)ethyl]-3a,6a-dihydro-1H-pyrrolo[3,4-c]pyrazole-4,6-dione] | 11.1 | – | >36.56 | > 407
4 | COc1cccc(C2=NN(c3cccc(F)c3)C3C(=O)N(CCc4ccc(F)cc4)C(=O)C23)c1O (stereo not shown) [15a, 1-(3-Fluorophenyl)-5-[2-(4-fluorophenyl)ethyl]-3-(2-hydroxy-3-methoxyphenyl)-3a,6a-dihydro-1H-pyrrolo[3,4-c]pyrazole-4,6-dione] | 12.1 | – | 10.67 | 129
5 | COc1cccc(C2=NN(c3ccccc3F)C3C(=O)N(CCc4ccc(F)cc4)C(=O)C23)c1O (stereo not shown) [15b, 1-(2-Fluorophenyl)-5-[2-(4-fluorophenyl)ethyl]-3-(2-hydroxy-3-methoxyphenyl)-3a,6a-dihydro-1H-pyrrolo[3,4-c]pyrazole-4,6-dione] | 113 | – | >3.71 | > 419
6 | COc1cccc(C2=NN(c3ccc(Cl)cc3)C3C(=O)N(CCc4ccc(F)cc4)C(=O)C23)c1O (stereo not shown) [15c, 1-(4-Chlorophenyl)-5-[2-(4-fluorophenyl)ethyl]-3-(2-hydroxy-3-methoxyphenyl)-3a,6a-dihydro-1H-pyrrolo[3,4-c]pyrazole-4,6-dione] | 25.5 | – | 6.52 | 166
7 | COc1cccc(C2=NN(c3ccc(F)cc3F)C3C(=O)N(CCc4ccc(F)cc4)C(=O)C23)c1O (stereo not shown) [15d, 1-(2,4-Difluorophenyl)-5-[2-(4-fluorophenyl)ethyl]-3-(2-hydroxy-3-methoxyphenyl)-3a,6a-dihydro-1H-pyrrolo[3,4-c]pyrazole-4,6-dione] | 65.9 | – | >6.12 | > 404
8 | COc1cccc(C2=NN(c3ccc(C(F)(F)F)cc3)C3C(=O)N(CCc4ccc(F)cc4)C(=O)C23)c1O (stereo not shown) [15e, 5-[2-(4-Fluorophenyl)-ethyl]-3-(2-hydroxy-3-methoxyphenyl)-1-(4-trifluoromethylphenyl)-3a,6a-dihydro-1H-pyrrolo[3,4-c]pyrazole-4,6-dione] | 32.1 | – | >11.81 | > 379
9 | COc1cccc(C2=NN(c3ccc(S(C)(=O)=O)cc3)C3C(=O)N(CCc4ccc(F)cc4)C(=O)C23)c1O (stereo not shown) [15f, 5-[2-(4-Fluorophenyl)ethyl]-3-(2-hydroxy-3-methoxyphenyl)-1-(4-methanesulfonylphenyl)-3a,6a-dihydro-1H-pyrrolo[3,4-c]pyrazole-4,6-dione] | 65.3 | – | >5.70 | > 372
10 | COc1cccc(C2=NN(c3ccc(S(N)(=O)=O)cc3)C3C(=O)N(CCc4ccc(F)cc4)C(=O)C23)c1O (stereo not shown) [15g, 4-[5-[2-(4-Fluorophenyl)ethyl]-3-(2-hydroxy-3-methoxyphenyl)-4,6-dioxo-4,5,6,6a-tetrahydro-3aH-pyrrolo[3,4-c]pyrazol-1-yl]-benzenesulfonamide] | 30.4 | – | 1.51 | 46

Continued, in another order:

Row | EC50 (HIV-1IIIB; [1]) [µM] | EC50 (HIV-1IIIB) [µM] | SMILES | TI (in vitro therapeutic index, CC50 value/EC50 value) (HIV-1IIIB) | CC50 at 72 h (Cytotoxicity assay (MTT)) [µM]
11 | 5.37 | – | COc1c(O)cccc1C1=NN(c2ccc(F)cc2)C2C(=O)N(CCc3ccc(F)cc3)C(=O)C12 (stereo not shown) [7a, 1-(4-Fluorophenyl)-5-[2-(4-fluorophenyl)ethyl]-3-(3-hydroxy-2-methoxyphenyl)-3a,6a-dihydro-1H-pyrrolo[3,4-c]pyrazole-4,6-dione] | 7.29 | 39.1
12 | 9.21 | – | O=C1C2C(c3ccccc3)=NN(c3ccc(F)cc3)C2C(=O)N1CCc1ccc(F)cc1 (stereo not shown) [7b, 1-(4-Fluorophenyl)-5-[2-(4-fluorophenyl)ethyl]-3-phenyl-3a,6a-dihydro-1H-pyrrolo[3,4-c]pyrazole-4,6-dione] | 16.03 | 148
13 | 35.3 | – | O=C1C2C(c3ccc(O)cc3O)=NN(c3ccc(F)cc3)C2C(=O)N1CCc1ccc(F)cc1 (stereo not shown) [9a, 3-(2,4-Dihydroxyphenyl)-1-(4-fluorophenyl)-5-[2-(4-fluorophenyl)ethyl]-3a,6a-dihydro-1H-pyrrolo[3,4-c]pyrazole-4,6-dione] | 4.91 | 173
14 | 5.74 | – | O=C1C2C(c3cccc(F)c3O)=NN(c3ccc(F)cc3)C2C(=O)N1CCc1ccc(F)cc1 (stereo not shown) [9b, 1-(4-Fluorophenyl)-5-[2-(4-fluorophenyl)ethyl]-3-(3-fluoro-2-hydroxyphenyl)-3a,6a-dihydro-1H-pyrrolo[3,4-c]pyrazole-4,6-dione] | 24.58 | 141
15 | 4.21 | – | O=C1C2C(c3cc(F)ccc3O)=NN(c3ccc(F)cc3)C2C(=O)N1CCc1ccc(F)cc1 (stereo not shown) [9c, 1-(4-Fluorophenyl)-5-[2-(4-fluorophenyl)ethyl]-3-(5-fluoro-2-hydroxyphenyl)-3a,6a-dihydro-1H-pyrrolo[3,4-c]pyrazole-4,6-dione] | 37.70 | 159
16 | 20.4 | – | O=C1C2C(c3cccc(Cl)c3O)=NN(c3ccc(F)cc3)C2C(=O)N1CCc1ccc(F)cc1 (stereo not shown) [9d, 3-(3-Chloro-2-hydroxyphenyl)-1-(4-fluorophenyl)-5-[2-(4-fluorophenyl)ethyl]-3a,6a-dihydro-1H-pyrrolo[3,4-c]pyrazole-4,6-dione] | 16.23 | 332
17 | 7.55 | – | O=C1C2C(c3cccc([N+](=O)[O-])c3O)=NN(c3ccc(F)cc3)C2C(=O)N1CCc1ccc(F)cc1 (stereo not shown) [9e, 1-(4-Fluorophenyl)-5-[2-(4-fluorophenyl)ethyl]-3-(2-hydroxy-3-nitrophenyl)-3a,6a-dihydro-1H-pyrrolo[3,4-c]pyrazole-4,6-dione] | 6.56 | 49.5
18 | 4.9 | – | Cc1cccc(C2=NN(c3ccc(F)cc3)C3C(=O)N(CCc4ccc(F)cc4)C(=O)C23)c1O (stereo not shown) [9f, 1-(4-Fluoro-phenyl)-5-[2-(4-fluoro-phenyl)-ethyl]-3-(2-hydroxy-3-methyl-phenyl)-3a,6a-dihydro-1H-pyrrolo[3,4-c]pyrazole-4,6-dione] | 30.73 | 151
19 | < 5 | 3.98 | COc1cccc(C2=NN(c3ccc(F)cc3)C3C(=O)N(CCc4ccc(F)cc4)C(=O)C23)c1O (stereo not shown) [9g, 1-(4-Fluorophenyl)-5-[2-(4-fluorophenyl)ethyl]-3-(2-hydroxy-3-methoxyphenyl)-3a,6a-dihydro-1H-pyrrolo[3,4-c]pyrazole-4,6-dione] | >105.26 | > 419
20 | 7.11 | – | O=C1C2C(c3cccc4c3OCO4)=NN(c3ccc(F)cc3)C2C(=O)N1CCc1ccc(F)cc1 (stereo not shown) [12b, 3-Benzo[1,3]dioxol-4-yl-1-(4-fluorophenyl)-5-[2-(4-fluorophenyl)ethyl]-3a,6a-dihydro-1H-pyrrolo[3,4-c]pyrazole-4,6-dione] | 31.29 | 222
21 | 35.6 | – | O=C1C2C(c3nccs3)=NN(c3ccc(F)cc3)C2C(=O)N1CCc1ccc(F)cc1 (stereo not shown) [14a, 1-(4-Fluorophenyl)-5-[2-(4-fluorophenyl)ethyl]-3-thiazol-2-yl-3a,6a-dihydro-1H-pyrrolo[3,4-c]pyrazole-4,6-dione] | 4.46 | 158
22 | 26.2 | – | O=C1C2C(c3ccccn3)=NN(c3ccc(F)cc3)C2C(=O)N1CCc1ccc(F)cc1 (stereo not shown) [14b, 1-(4-Fluorophenyl)-5-[2-(4-fluorophenyl)ethyl]-3-pyridin-2-yl-3a,6a-dihydro-1H-pyrrolo[3,4-c]pyrazole-4,6-dione] | 5.73 | 150
